Measurements from patent US6953786B2, “Compositions comprising plant-derived polyphenolic compounds and inhibitors of reactive oxygen species and methods of using thereof” (The Regents of the University of California, priority 2002, dated 2005).

Legend:
Akt/PKB = Akt/PKB phosphorylation (Western blot); type: cell-based, human; settings: Mia PACA-2, 72 hours, with serum; genistein 100 μM, LY294002 50 μM
Method: To determine whether phosphatidylinositol 3-kinase (PI 3-kinase) and Akt/PKB mediate the effects of serum on NF-κB activation and that the effects of polyphenolic compounds on NF-κB activation are due to an ability to inhibit PI 3-kinase, the following assays were conducted. Specifically, to determine the effects of serum, LY294002, a PI 3-kinase inhibitor, and genistein on Akt/PKB phosphorylation, Mia PACA-2 cells were cultured for 72 hours in the absence or presence of serum with or without 100 μM genistein (GN) or 50 μM LY294002. Western blots were performed on whole cell lysates as described above except that specific antibodies against phosphorylated and total Akt/PKB were used (Akt/PKB is Anti-pS473 AktpAB from Promega, Madison Wis. and total Akt is Akt ½ from Santa Cruz, Santa Cruz, Calif.). The membranes were then stripped and re-probed with an antibody against total Akt .

Mia PACA-2 = assay: TUNEL apoptosis assay in primary tumors and normal tissues; type: in vivo, nude mouse
Method: In order to determine the mechanism of the suppressive effects of quercetin on the growth of the pancreatic cancer, apoptosis in the primary tumors using the TUNEL assay was conducted. See Gukovskaya AS, et al. (1997) Clin Invest 100:1853-1862; Gukovskaya AS, et al. (1996) Gastroenterology 110:875-884; and Sandoval D, et al. (1996) Gastroenterology 111:1081-1091, which are herein incorporated by reference. Specifically, 3 μm tissue section were deparaffinized and rehydrated through a graded series of ethanol and redistilled water. Tissue sections were refixed in 4% paraformaldehyde for 15 minutes at room temperature and then incubated with proteinase K (20 μg/ml in 10 mM Tirs/HCL, pH 7.4-8.0) for 15 minutes at 37° C. DNA breaks were then labeled with terminal deoxytransferase (TdT) and biotinylated deoxyUTP. Staining without TdT enzyme or the biotinylated substrate were used as negative controls. For positive controls, slides were treated with DNase I. Measurements were made by light microscpy observations and values calculated as the percentage of cells positively stained as a percentage of the total number of cells.

Structure (SMILES)	serum-induced Akt/PKB phosphorylation/activation (Akt/PKB)	Percentage of apoptosis (Mia PACA-2; TUNEL in primary tumors of quercetin-treated nude mice, means ± SE, n=8) [%]	apoptosis in normal tissues detected by the TUNEL assay (Mia PACA-2; quercetin-treated nude mice, data not shown)
O=c1c(-c2ccc(O)cc2)coc2cc(O)cc(O)c12 [genistein]	attenuated serum-induced Akt phosphorylation/activation		
O=c1c(O)c(-c2ccc(O)c(O)c2)oc2cc(O)cc(O)c12 [quercetin]		7.10 ± 1.00	no increase in apoptosis
